Laboratory results published in US20250084026A1, “NOVEL SALT OF 1-SULFONYL PYRROLE DERIVATIVE, PREPARATION METHOD THEREOF AND PHARMACEUTICAL COMPOSITION COMPRISING THEREOF” (ILDONG PHARMACEUTICAL CO., LTD., priority 2021, published 2025).
≈ marks a conversion by molar mass, not a printed value. Read-outs that look alike come from different tables or passages of the source. Blank lines part the entries; values can stand above or below the compound they belong to.

Tests used:
Type in all cases: physicochemical
[1] = Drug stability under stress condition, 60° C. open, XRPD and HPLC; settings: for HPLC peak RT 7.423 min, RRT 0.74 / HPLC peak RT 10.063 min, RRT 1.00 / HPLC peak RT 10.277 min, RRT 1.02: in %; for Stability under harsh conditions (in words): up to Week 2
Description: 10 mg and 40 mg of the free base and the fumaric acid salt of 1-(5-(2-fluorophenyl)-4-methoxy-1-((6-methoxypyridin-3-yl) sulfonyl)-1H-pyrrol-3-yl)-N-methylmethanamine were weighed into each vial and stored under stress conditions to investigate stability.
The stress conditions are as follows: • high temperature open room condition: 60° C.; • The bottle neck of the vial was wrapped with aluminum foil with pinholes to avoid contamination, and the samples were analyzed by XRPD and HPLC at the onset (Day 0), week 1 and week 2.

[2] = Solubility in bio-relevant media (water, SGF, FaSSIF, FeSSIF), HPLC; settings: for solubility at 1 h / solubility at 24 h: thermodynamic from solid; for solubility at 1 h: read-out: Solubility-1 h concentration; for solubility at 24 h: read-out: Solubility-24 h concentration
Description: Solubility in bio-relevant media, i.e., stimulated gastric fluid (SGF), fasted state simulated intestinal fluid (FaSSIF), and fed state simulated intestinal fluid (FeSSIF) of the free base and the fumarate salt of 1-(5-(2-fluorophenyl)-4-methoxy-1-((6-methoxypyridin-3-yl) sulfonyl)-1H-pyrrole-3-yl)-N-methylmethanamine that was confirmed through the salt screening analysis result, was confirmed.
Buffers for the bio-relevant media were prepared as follows. • Water: Laboratory Milli-Q purified water. • SGF (Stimulated Gastric Fluid): 2.0 g of sodium chloride and 7 mL of hydrochloric acid dissolved in 1000 ml of water was used. • FaSSIF (Fasted State Simulated Intestinal Fluid): A commercial product purchased from Bio-Relevant Company and manufactured according to instructions was used. • FeSSIF (Fed State Simulated Intestinal Fluid): A commercial product purchased from Bio-Relevant Company and prepared according to instructions was used.
For the experiment, about 10 mg of compound (10 mg as free base form) was weighed into each glass vial and then 1 mL of medium was added (final concentration of 10 mg/mL). Then, the sample was continuously stirred in a magnetic stirrer at 37° C. at a speed of 200 rpm. After stirring for 1 hour and 24 hours, 0.5 mL of the sample solution was transferred to a 1.5 mL centrifuge tube and centrifuged at 12,000 rpm for 5 minutes. The supernatant was diluted with suitable methanol and analyzed by HPLC.
The free base was selected as a standard sample to quantify the solubility, and about 10 mg of the free base was weighed into a 25 mL flask and dissolved in methanol to the curve.
The residue of the compound in water was tested by XRPD to determine the solid state.

[3] = Dynamic vapor sorption (DVS) hygroscopicity; settings: 25° C., 0%~95%~0% RH cycle; compared to the known hygroscopicity evaluation standard
Description: Using DVS intrinsic manufactured by Surface Measurement Systems Ltd, about 20 mg of the sample was tested for water sorption/desorption profiles at 25° C. under a 0%˜95%˜0% relative humidity (RH) cycle using the following parameters.
Equilibrium: dm/dt: 0.01%/min.
Range of RH (%) measurement step: 0%˜95%˜0%; RH (%) measurement step: 5%

[4] = Thermal gravimetric analysis (TGA) weight loss
Description: Using Pyris 1 TGA manufactured by PerkinElmer, Inc., a compound sample (about 5 mg) was weighed in pans under nitrogen purge at a ramp rate of 20° C./min over the range of 30 to 300° C.

[5] = Drug stability at 40° C., 75% RH for 8 weeks (XRPD, TGA, HPLC)
Description: In order to confirm the stability of the fumarate salt of 1-(5-(2-fluorophenyl)-4-methoxy-1-((6-methoxypyridin-3-yl) sulfonyl)-1H-pyrrole-3-yl)-N-methylmethanamine prepared under an isopropyl alcohol solvent, water sorption and/or hydrate formation were confirmed under conditions of 75% RH at 40° C. for 8 weeks.
To proceed with the experiment, 100 mg of the fumarate salt of 1-(5-(2-fluorophenyl)-4-methoxy-1-((6-methoxypyridin-3-yl) sulfonyl)-1H-pyrrole-3-yl)-N-methylmethanamine was put in a vial with a wide mouth (Experimental group 1), and the other sample was put in a vial that is double-packed with a polyethylene bag (Experimental group 2). Then, both samples were placed inside a 40° C., 75% RH chamber and monitored at 2-week intervals.
The XRPD values were checked every two weeks to identify whether or not there was a change in the crystalline form, and the results are shown in Table 11.

[6] = Week 2, 4, 6 and 8, Experimental groups 1 and 2

% Impurities ([1]; 60° C., Week 1): 20.94%
Assay % ([1]; 60° C., Week 1): 67.44%
Crystalline form (XRPD) ([1]; 60° C., Week 1): Melted
HPLC peak RT 6.797 min, RRT 0.68 ([1]; 60° C., Week 1): 0.43%
HPLC peak RT 7.563 min, RRT 0.75 ([1]; 60° C., Week 1): 1%
HPLC peak RT 9.327 min, RRT 0.93 ([1]; 60° C., Week 1): 0.18%
HPLC peak RT 10.813 min, RRT 1.07 ([1]; 60° C., Week 1): 0.57%
HPLC peak RT 7.423 min, RRT 0.74 ([1]; 60° C., Week 1): 18.86
HPLC peak RT 10.063 min, RRT 1.00 ([1]; 60° C., Week 1): 79.06
HPLC peak RT 10.277 min, RRT 1.02 ([1]; 60° C., Week 1): 9.95
% Impurities ([1]; 60° C., Week 2): 35.00%
Assay % ([1]; 60° C., Week 2): 60.29%
Crystalline form (XRPD) ([1]; 60° C., Week 2): Melted
HPLC peak RT 6.797 min, RRT 0.68 ([1]; 60° C., Week 2): 0.31%
HPLC peak RT 7.563 min, RRT 0.75 ([1]; 60° C., Week 2): 4.12%
HPLC peak RT 9.327 min, RRT 0.93 ([1]; 60° C., Week 2): 0.14%
HPLC peak RT 10.813 min, RRT 1.07 ([1]; 60° C., Week 2): 0.53%
HPLC peak RT 7.423 min, RRT 0.74 ([1]; 60° C., Week 2): 13.51
HPLC peak RT 10.063 min, RRT 1.00 ([1]; 60° C., Week 2): 65.0
HPLC peak RT 10.277 min, RRT 1.02 ([1]; 60° C., Week 2): 16.38
Stability under harsh conditions (in words) ([1]; 60° C.): high impurity content
% Impurities ([1]; Day 0): 0.85%
Assay % ([1]; Day 0): 100.00%
Crystalline form (XRPD) ([1]; Day 0): Free form
HPLC peak RT 9.327 min, RRT 0.93 ([1]; Day 0): 0.18%
HPLC peak RT 10.813 min, RRT 1.07 ([1]; Day 0): 0.66%
HPLC peak RT 10.063 min, RRT 1.00 ([1]; Day 0): 99.15
Solubility-24 h concentration ([2]; water, 37° C., 24 h): 8630 µg/mL (≈ 21.3 mM)
SMILES: CNCc1cn(S(=O)(=O)c2ccc(OC)nc2)c(-c2ccccc2F)c1OC [Free base, 1-(5-(2-fluorophenyl)-4-methoxy-1-((6-methoxypyridin-3-yl)sulfonyl)-1H-pyrrol-3-yl)-N-methylmethanamine]

Hygroscopicity (DVS, in words) [3]: very low hygroscopicity
TGA weight loss (% w/w) ([4]; 120° C., listed as Example 3): ~0.0307%,
% Impurities ([1]; 60° C., Week 1): 0.76%
Assay % ([1]; 60° C., Week 1): 105.69%
Crystalline form (XRPD) ([1]; 60° C., Week 1): Crystalline
HPLC peak RT 9.327 min, RRT 0.93 ([1]; 60° C., Week 1): 0.17%
HPLC peak RT 10.813 min, RRT 1.07 ([1]; 60° C., Week 1): 0.59%
HPLC peak RT 10.063 min, RRT 1.00 ([1]; 60° C., Week 1): 99.24
% Impurities ([1]; 60° C., Week 2): 0.80%
Assay % ([1]; 60° C., Week 2): 94.74%
Crystalline form (XRPD) ([1]; 60° C., Week 2): Crystalline
HPLC peak RT 9.327 min, RRT 0.93 ([1]; 60° C., Week 2): 0.18%
HPLC peak RT 10.813 min, RRT 1.07 ([1]; 60° C., Week 2): 0.62%
HPLC peak RT 10.063 min, RRT 1.00 ([1]; 60° C., Week 2): 99.20
Stability under harsh conditions (in words) ([1]; 60° C.): excellent stability
% Impurities ([1]; Day 0): 0.77%
Assay % ([1]; Day 0): 100.00%
Crystalline form (XRPD) ([1]; Day 0): Crystalline
HPLC peak RT 9.327 min, RRT 0.93 ([1]; Day 0): 0.17%
HPLC peak RT 10.813 min, RRT 1.07 ([1]; Day 0): 0.6%
HPLC peak RT 10.063 min, RRT 1.00 ([1]; Day 0): 99.23
Solubility (in words) ([2]; all of SGF, FaSSIF, and FeSSIF): excellent solubility
Solubility (in words) ([2]; fasted state simulated intestinal fluid (FaSSIF)): very good solubility
solubility at 1 h ([2]; simulated gastric fluid, SGF, 37° C.): > 10000 µg/mL
solubility at 24 h ([2]; simulated gastric fluid, SGF, 37° C., 24 h): > 10000 µg/mL
solubility at 1 h ([2]; FaSSIF, 37° C.): 7910 µg/mL
solubility at 24 h ([2]; FaSSIF, 37° C., 24 h): 7580 µg/mL
solubility at 1 h ([2]; FeSSIF, 37° C.): 4500 µg/mL
solubility at 24 h ([2]; FeSSIF, 37° C., 24 h): 4440 µg/mL
solubility at 1 h ([2]; water, 37° C.): 6390 µg/mL
solubility at 24 h ([2]; water, 37° C., 24 h): 5320 µg/mL
Polymorphic change vs initial XRPD of crystalline Form I ([5]; 8 weeks): no polymorphic change
Whether or not XRPD value changed ([5]; Experimental group 1 (vial with a wide mouth), Week 2): Same
Whether or not XRPD value changed ([5]; Experimental group 1 (vial with a wide mouth), Week 2 (second line so printed, r7)): Same
Whether or not XRPD value changed ([5]; Experimental group 1 (vial with a wide mouth), Week 6): Same
Whether or not XRPD value changed ([5]; Experimental group 1 (vial with a wide mouth), Week 8): Same
Whether or not XRPD value changed ([5]; Experimental group 2 (vial double-packed with polyethylene bag), Week 2): Same
Whether or not XRPD value changed ([5]; Experimental group 2 (vial double-packed with polyethylene bag), Week 2 (second line so printed, r7)): Same
Whether or not XRPD value changed ([5]; Experimental group 2 (vial double-packed with polyethylene bag), Week 6): Same
Whether or not XRPD value changed ([5]; Experimental group 2 (vial double-packed with polyethylene bag), Week 8): Same
Hygroscopicity (TGA analysis, in words) [5, 6]: significantly low hygroscopicity
Purity (HPLC analysis, in words) [5, 6]: high purity
SMILES: CNCc1cn(S(=O)(=O)c2ccc(OC)nc2)c(-c2ccccc2F)c1OC.O=C(O)/C=C/C(=O)O [Fumarate salt, fumarate salt of 1-(5-(2-fluorophenyl)-4-methoxy-1-((6-methoxypyridin-3-yl)sulfonyl)-1H-pyrrole-3-yl)-N-methylmethanamine]

Hygroscopicity (from TGA, in words) [4]: high hygroscopicity
TGA weight loss [4]: 1.0189%
SMILES: CNCc1cn(S(=O)(=O)c2ccc(OC)nc2)c(-c2ccccc2F)c1OC.O=P(O)(O)O [phosphate salt, Phosphate Salt of 1-(5-(2-fluorophenyl)-4-methoxy-1-((6-methoxypyridin-3-yl)sulfonyl)-1H-pyrrol-3-yl)-N-methylmethanamine]
